Ends that are not written are not given here.
How the values were obtained:
[1] = tested on: Lovenox ® Activity in Blood from Patients Treated with Lovenox ®; assay: Neutralizing Lovenox activity in blood from patients treated with Lovenox (anti-Factor Xa assay); type: biochemical, human; settings: for Lovenox ® Neutralized: Peptide 12 μg/ml
Description: Blood was obtained from volunteers who were being treated with Lovenox® for their medical conditions after obtaining signatures on informed consent forms as approved by the Institutional Review Board. The assays to test neutralization of Lovendx® were performed as described for Table 2. A dose response from 1-60 μg/ml was evaluated as in Table 2.
The dose response pattern for the effective peptides was similar to the dose response in control plasma to which Lovenox® had been added. Each data point represents the mean and standard deviation of triplicate analyses on the same sample of blood from each patient.

[2] = tested on: anti-Factor Xa Activity of Unfractionated Heparin; assay: Anti-Factor Xa assay: neutralization of unfractionated heparin in citrate or plasma in vitro; type: biochemical, human; settings: for Unfractionated Heparin Neutralized: UFH 0.7 U/ml
Description: The ability of peptides such as (ARKKAAKA)3VLVLVLVL (SEQ ID NO:5) to neutralize the anti-Factor Xa activity of UFH and LMWH in vitro was tested using the Stachrom Heparin kit (Diagnostica Stago), a standard hematology laboratory assay used to measure the anti-Factor Xa activity of heparin. The assay was performed using the low molecular weight heparin enoxaparin sodium (Lovenox®, Aventis Pharmaceuticals, Inc.), unfractionated heparin (UFH), or the non-heparin glycosaminoglycan danaparoid sodium (Orgaran®, Organon Inc., West Orange, N.J.) in 0.32% citrate or in plasma anticoagulated with 0.32% citrate. Enoxaparin is commonly used clinically as a low molecular weight heparin (LMWH). Danaparoid is commonly used clinically as a non-heparin glycosaminoglycan anticoagulant. Currently, the only FDA approved drug to target UFH is protamine, which is not effective in vivo against LMWH or a non-heparin glycosaminoglycan such as danaparoid. Buffer and ATIII are added to form the heparin/ATIII complex, peptide is added, then Factor Xa, reporter dye substrate for Factor Xa activity, and stop solution, and the dye concentration is read at 405 nm. The absorbance of the dye increases with increasing Factor Xa activity, and thus is inversely proportional to the heparin (anti-Factor Xa activity) concentration. Peptides were tested in plasma obtained from three volunteers (A, B, and C). Platelet function inhibitors PG12 and theophylline were added to the blood immediately upon collection. […]

[3] = Affinity coelectrophoresis (ACE) of peptide binding to radiolabeled low Mr heparin; parameters: species or system pig; settings: for Kd: pH 7.0, mean and standard deviation of four assays, read-out: Kd (nM), affinity for low molecular weight heparin
Text: Preparation of Radiolabeled Heparin. Whole heparin from pig intestinal mucosa (Sigma) was tyramine end-labeled and radiolabeled with Na^125I (Amersham, Pharmacia Biotech, Inc., Piscataway, N.J.) to an average specific activity≅1.0×10^7 CPM/μg as described (San Antonio, J. D., et al., Biochemistry, 32:4746-4755, 1993). Radiolabeled heparin was fractionated on Sephadex G-100 (Bio-Rad Laboratories, Hercules, Calif.) and the final≅12% of material to elute was retained as the low Mr material of ≦6,000 (Jordan, R., D. Beeler, and R. Rosenberg, J. Biol. Chem., 254:2902-2913, 1979; Laurent, T. C., et al., Biochem. J., 175:691-701, 1978).
Analysis of Peptide-Heparin Interactions by Affinity Coelectrophoresis (ACE). ACE was used to study interactions between peptides and low molecular weight (low Mr) heparin (WO00/45831). In ACE, trace concentrations of radiolabeled heparin are electrophoresed through agarose lanes containing peptides at various concentrations. These analyses are used to determine the dissociation constants (Kd's). The electrophoretic patterns of radiolabeled heparin are then visualized using a phosphorimager, and the dissociation constant (Kd) corresponds to the protein concentration at which the heparin is half shifted from being fully mobile at very low protein concentrations to maximally retarded at saturating protein concentrations. The lower the Kd value, the higher the affinity.
Binding of radiolabeled heparin to peptides was studied by ACE as detailed elsewhere (San Antonio, J. D., et al., Biochemistry, 32:4746-4755, 1993). […] Briefly, peptides were dissolved in 1×ACE running buffer, 50 mM sodium 3-(N-morpholino)-2-hydroxypropanesulfonate (MOPSO, Sigma)/125 mM sodium acetate, pH 7.0, and serially diluted in running buffer at 2× concentrations. Peptides were then mixed 1:1 with 2% agarose/1% CHAPS, 3-[(3-cholamidopropyl)dimethylammonio]-1-propanesulfonate, (Boehringer Mannheim, Indianapolis, Ind.), and loaded into wells of a 1% agarose gel. Radiolabeled heparin was then loaded in a slot on the anode side of the gel, and electrophoresed through the peptide-containing wells, towards the cathode. Gels were dried and PG mobility was measured with a Phosphorimager (Molecular Dynamics, Sunnyvale, Calif.) by scanning each protein lane and determining the relative radioactivity content per 88-μm pixel through the length of the lane. Retardation coefficient (R) measurements, binding isotherm curve fittings, and apparent Kd value determinations were calculated as detailed previously (Lee, M. K., and A. D. Lander, Proc. Natl. Acad. Sci. USA, 88:2768-2772, 1991; San Antonio, J. D., et al, Biochemistry, 32:4746-4755, 1993).
Retardation coefficients (R) for the migration of low Mr 1^25I-tyramine-heparin through peptides were determined from ACE gel electrophoretograms, and are plotted against peptide concentration. Smooth curves represent non-linear least-squares fits to the equation R=R∞/{1+(Kd/[peptide])^n}.

[4] = blood of Lovenox-treated Patient Number 1
[5] = blood of Lovenox-treated Patient Number 2
[6] = blood of Lovenox-treated Patient Number 3
[7] = blood of Lovenox-treated Patient Number 4
[8] = blood of Lovenox-treated Patient Number 5
[9] = blood of Lovenox-treated Patient Number 8
[10] = blood of Lovenox-treated Patient Number 9
[11] = blood of Lovenox-treated Patient Number 10
[12] = blood of Lovenox-treated Patient Number 11

Row | Substance | Lovenox ® Neutralized [1, 4] [U/ml] | Lovenox ® Neutralized [1, 5] [U/ml] | Lovenox ® Neutralized [1, 6] [U/ml] | Lovenox ® Neutralized [1, 7] [U/ml] | Lovenox ® Neutralized [1, 8] [U/ml] | Lovenox ® Neutralized [1, 9] [U/ml] | Lovenox ® Neutralized [1, 10] [U/ml] | Lovenox ® Neutralized [1, 11] [U/ml] | Lovenox ® Neutralized [1, 12] [U/ml] | Unfractionated Heparin Neutralized ([2]; 1 μg/ml Peptide, A Plasma) [U/ml] | Unfractionated Heparin Neutralized ([2]; 1 μg/ml Peptide, B Plasma) [U/ml] | Unfractionated Heparin Neutralized ([2]; 1 μg/ml Peptide, C Plasma) [U/ml] | Unfractionated Heparin Neutralized ([2]; 1 μg/ml Peptide, Citrate) [U/ml] | Unfractionated Heparin Neutralized ([2]; 6 μg/ml Peptide, A Plasma) [U/ml] | Unfractionated Heparin Neutralized ([2]; 6 μg/ml Peptide, B Plasma) [U/ml] | Unfractionated Heparin Neutralized ([2]; 6 μg/ml Peptide, C Plasma) [U/ml] | Unfractionated Heparin Neutralized ([2]; 6 μg/ml Peptide, Citrate) [U/ml] | Unfractionated Heparin Neutralized ([2]; 12 μg/ml Peptide, A Plasma) [U/ml] | Unfractionated Heparin Neutralized ([2]; 12 μg/ml Peptide, B Plasma) [U/ml] | Unfractionated Heparin Neutralized ([2]; 12 μg/ml Peptide, C Plasma) [U/ml] | also measured
1 | VLVL(ARKKAAKA)3ARKKCAKA (VLVLARKKAAKAARKKAAKAARKKAAKAARKKCAKA; Fragment) | 0.043 | 0.335 | 0.008 | 0.172 | 0.110 | 0.329 | 0.200 | 0.184 | 0.240 | 0.240 ± 0.061 | 0.259 ± 0.063 | 0.233 ± 0.075 | 0.262 ± 0.101 | 0.574 ± 0.014 | 0.550 ± 0.061 | 0.559 ± 0.014 | 0.597 ± 0.034 | 0.618 ± 0.014 | 0.586 ± 0.001 | 0.526 ± 0.031 | Unfractionated Heparin Neutralized ([2]; 12 μg/ml Peptide, Citrate): 0.534 ± 0.056 U/ml; Kd [3]: 48 ± 11 nM
2 | ARKKAAKAARKKAAKAARKKAAKAVLVLVL [(ARKKAAKA)3VLVLVL] | 0.016 | 0.030 | 0.043 | 0.122 | 0.109 | 0.104 | 0.187 | 0.133 | 0.142 | 0.249 ± 0.129 | 0.142 ± 0.040 | 0.114 ± 0.056 | 0.150 ± 0.023 | 0.667 ± 0.019 | 0.598 ± 0.016 | 0.572 ± 0.018 | 0.576 ± 0.060 | 0.570 ± 0.119 | 0.585 ± 0.005 | 0.575 ± 0.013 | Unfractionated Heparin Neutralized ([2]; 12 μg/ml Peptide, Citrate): 0.595 ± 0.021 U/ml; Kd [3]: 44 ± 17 nM
3 | ARKKAAKAARKKAAKAARKKAAKAARKKAAKA [(ARKKAAKA)4] | 0.116 | 0.073 | 0.105 | 0.225 | 0.194 | 0.289 | 0.283 | 0.194 | 0.135 | 0.069 ± 0.023 | 0.124 ± 0.047 | 0.076 ± 0.014 | 0.056 ± 0.019 | 0.334 ± 0.016 | 0.361 ± 0.038 | 0.397 ± 0.004 | 0.423 ± 0.014 | 0.412 ± 0.010 | 0.395 ± 0.012 | 0.396 ± 0.018 | Unfractionated Heparin Neutralized ([2]; 12 μg/ml Peptide, Citrate): 0.370 ± 0.020 U/ml; Unfractionated Heparin Neutralized ([2]; 60 μg/ml Peptide, A Plasma): 0.389 ± 0.018 U/ml; Unfractionated Heparin Neutralized ([2]; 60 μg/ml Peptide, B Plasma): 0.442 ± 0.056 U/ml; Unfractionated Heparin Neutralized ([2]; 60 μg/ml Peptide, C Plasma): 0.401 ± 0.012 U/ml; Unfractionated Heparin Neutralized ([2]; 60 μg/ml Peptide, Citrate): 0.378 ± 0.023 U/ml; Unfractionated Heparin Neutralized ([2]; 120 μg/ml Peptide, A Plasma): 0.364 ± 0.032 U/ml; Unfractionated Heparin Neutralized ([2]; 120 μg/ml Peptide, B Plasma): 0.392 ± 0.075 U/ml; Unfractionated Heparin Neutralized ([2]; 120 μg/ml Peptide, C Plasma): 0.374 ± 0.020 U/ml; Unfractionated Heparin Neutralized ([2]; 120 μg/ml Peptide, Citrate): 0.361 ± 0.028 U/ml; affinity for low molecular weight heparin [3]: high heparin affinity; Kd [3]: 55 ± 32 nM
4 | Protamine [reference compound] | 0.016 | 0.022 | 0 | 0.092 | 0.013 | 0.018 | 0.244 | 0.069 | 0.021 | 0.241 ± 0.026 | 0.268 ± 0.028 | 0.161 ± 0.030 | 0.126 ± 0.042 | 0.442 ± 0.012 | 0.423 ± 0.035 | 0.425 ± 0.012 | 0.475 ± 0.017 | 0.466 ± 0.023 | 0.448 ± 0.041 | 0.405 ± 0.035 | effectiveness in neutralizing Lovenox in blood of patients [1]: neutralized Lovenox® in the blood of just one patient; anti-Factor Xa activity of UFH neutralized ([2]; 6 μg/ml): about 0.4 U/ml; Unfractionated Heparin Neutralized ([2]; 12 μg/ml Peptide, Citrate): 0.429 ± 0.010 U/ml; Unfractionated Heparin Neutralized ([2]; 60 μg/ml Peptide, A Plasma): 0.380 ± 0.037 U/ml; Unfractionated Heparin Neutralized ([2]; 60 μg/ml Peptide, B Plasma): 0.387 ± 0.047 U/ml; Unfractionated Heparin Neutralized ([2]; 60 μg/ml Peptide, C Plasma): 0.350 ± 0.019 U/ml; Unfractionated Heparin Neutralized ([2]; 60 μg/ml Peptide, Citrate): 0.406 ± 0.023 U/ml; Unfractionated Heparin Neutralized ([2]; 120 μg/ml Peptide, A Plasma): 0.372 ± 0.024 U/ml; Unfractionated Heparin Neutralized ([2]; 120 μg/ml Peptide, B Plasma): 0.374 ± 0.034 U/ml; Unfractionated Heparin Neutralized ([2]; 120 μg/ml Peptide, C Plasma): 0.310 ± 0.024 U/ml; Unfractionated Heparin Neutralized ([2]; 120 μg/ml Peptide, Citrate): 0.374 ± 0.030 U/ml
